Measured values published in patent US5047555A, “4-aminophenol derivatives and processes for preparing the same” (Tanabe Seiyaku Co., Ltd., priority 1988, dated 1991).

How the values were obtained:
lipoxygenase = conditions: cited from earlier work
5-lipoxygenase = molecular target: T1, 5-lipoxygenase (Rattus norvegicus, UniProt P12527); test: 5-Lipoxygenase inhibitory activity (5-HETE formation, enzyme solution from RBL-1 cells); type: biochemical; conditions: radiolabelled arachidonic acid substrate, indomethacin, calcium chloride, ATP; RBL-1 enzyme
T1 construct: An enzyme solution containing 5-lipoxygenase was prepared from cultured basophilic leukemia cell strain RBL-1 cells; endogenous in cells; host or cells: RBL-1 cells
T1 sequence (P12527 1-673): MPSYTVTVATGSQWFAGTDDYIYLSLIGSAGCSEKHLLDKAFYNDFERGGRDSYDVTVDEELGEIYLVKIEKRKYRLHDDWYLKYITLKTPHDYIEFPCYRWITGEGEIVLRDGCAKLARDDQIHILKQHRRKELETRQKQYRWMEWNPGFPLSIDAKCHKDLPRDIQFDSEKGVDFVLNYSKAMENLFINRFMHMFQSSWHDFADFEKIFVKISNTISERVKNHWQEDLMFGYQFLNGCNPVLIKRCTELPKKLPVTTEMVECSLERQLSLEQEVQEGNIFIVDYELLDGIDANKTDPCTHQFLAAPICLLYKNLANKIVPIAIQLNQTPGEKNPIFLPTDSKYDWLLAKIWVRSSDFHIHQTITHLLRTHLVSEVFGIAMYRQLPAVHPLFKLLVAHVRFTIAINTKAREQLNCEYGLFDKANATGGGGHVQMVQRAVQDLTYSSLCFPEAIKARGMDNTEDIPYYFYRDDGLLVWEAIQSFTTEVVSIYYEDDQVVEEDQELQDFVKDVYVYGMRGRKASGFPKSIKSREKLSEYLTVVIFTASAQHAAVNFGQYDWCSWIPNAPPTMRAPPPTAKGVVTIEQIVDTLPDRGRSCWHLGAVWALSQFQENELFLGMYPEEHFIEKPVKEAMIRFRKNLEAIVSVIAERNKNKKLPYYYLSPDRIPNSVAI
Procedure: An enzyme solution containing 5-lipoxygenase was prepared from cultured basophilic leukemia cell strain RBL-1 cells, and the reaction was carried out with radiolabelled arachidonic acid as the substrate in the presence of indomethacin, calcium chloride, adenosine triphosphate and the substance to be tested. A predetermined amount of the reaction mixture was spotted on a thin layer, separated by development, and then the radioactivity of the 5-HETE (5-hydroxyeicosatetraenic acid) fraction of the enzyme reaction product was measured to give the index of the 5-lipoxygenase activity. […] [Method of M. Furukawa et al. described in Biochimica et Biophysica acta, vol. 795, p. 458 (1984)]

Leukotriene C4 formation = Leukotriene C4 formation inhibitory activity (sensitized guinea pig lung fragments); type: cell-based; conditions: Cavia porcellus; 10^-5 M; ovalbumin-sensitized guinea pig lung fragments, ovalbumin challenge in vitro, radioimmunoassay
Procedure: Leukotriene C4 formation inhibitory activity
Lung fragments of guinea pig sensitized with ovalbumin were treated with the test compound and challenged with ovalbumin in vitro. After solvent extraction, leukotriene C4 in the supernatant was determined by radioimmunoassay. The leukotriene C4 formation inhibitory activity of the test compound is expressed as % inhibition at the sample concentration of 10^-5 M.

Leukotriene B4 formation = Leukotriene B4 formation inhibitory activity (guinea pig neutrophil suspension); type: cell-based; conditions: Cavia porcellus, 10^-6 M, guinea pig neutrophils, calcium ionophore A23187 and arachidonic acid, HPLC
Procedure: Leukotriene B4 formation inhibitory activity
A neutrophil suspension, prepared by administration of casein intraperitoneally to guinea pig, was treated with the test compound and challenged with calcium ionophore A23187 and arachidonic acid. After solvent extraction, leukotriene B4 was assayed by high performance liquid chromatography. The leukotriene B4 formation inhibitory activity of the test compound is expressed as % inhibition at the sample concentration of 10^-6 M. [Method of Douglass et al. described in Prostaglandins vol. 31, p. 358 (1986)]

[1] = system: PCA (passive cutaneous anaphylaxis); conditions: cited from earlier work
[2] = stabilizer for polymers; cited from earlier work

| IC50 (5-lipoxygenase) [nM] | Structure (SMILES) | inhibition at 1 µM (Leukotriene B4 formation) [%] | also measured |
| --- | --- | --- | --- |
| – | CCCc1cc(F)c2oc(C(=O)OCc3ccccc3)c(C)c2c1O | – | lipoxygenase inhibitory activity (lipoxygenase): lipoxygenase inhibitory activity |
| – | CCCc1cc(F)c2oc(C(=O)OCC)c(C)c2c1O | – | lipoxygenase inhibitory activity (lipoxygenase): lipoxygenase inhibitory activity |
| 210 | Cc1cc(NC(=O)c2cc3ccccc3s2)cc(C)c1O | – | – |
| 440 | Cc1cc(NC(=O)/C=C/c2cccn2C)cc(C)c1O | – | – |
| 400 | CC=CC=CC(=O)Nc1cc(C)c(O)c(C)c1 | – | – |
| – | Cc1cc(NC(=O)c2cccs2)cc(C)c1O | – | inhibition at 10 µM (Leukotriene C4 formation): 76.6% |
| – | COc1cccc(CCC(=O)Nc2cc(C)c(O)c(C)c2)c1 | – | inhibition at 10 µM (Leukotriene C4 formation): 66.9% |
| – | COc1ccc(CC(C)C(=O)Nc2cc(C)c(O)c(C)c2)cc1 (stereo not shown) | – | inhibition at 10 µM (Leukotriene C4 formation): 58.9% |
| – | COc1ccc(/C=C(\C)C(=O)Nc2cc(C(C)(C)C)c(O)c(C(C)(C)C)c2)cc1 | – | inhibition at 10 µM (Leukotriene C4 formation): 58.3% |
| – | CC(=O)Oc1ccc(/C=C/C(=O)Nc2cc(C)c(O)c(C)c2)cc1OC(C)=O | 82 | – |
| – | CC(C)=CCC/C(C)=C/C(=O)Nc1cc(C)c(O)c(C)c1 | 82.5 | – |
| – | CC(C)=CCC/C(C)=C\C(=O)Nc1cc(C)c(O)c(C)c1 | 95.3 | – |
| – | CC(C)=CCC/C(C)=C/CC/C(C)=C/C(=O)Nc1cc(C)c(O)c(C)c1 | 90.5 | – |
| – | CC(C)=CCC/C(C)=C/CC/C(C)=C\C(=O)Nc1cc(C)c(O)c(C)c1 | 98.5 | – |
| – | COc1cc(C(=O)Nc2cc(Cl)c(O)c(Cl)c2)cc(OC)c1OC [2,6-dichloro-4-(3,4,5-trimethoxybenzoyl)aminophenol] | – | immune control activity or PCA inhibitory activity [1]: immune control activity or PCA (passive cutaneous anaphylaxis) inhibitory activity |
| 150 | CC(C)c1cc(NC(=O)c2cccs2)cc(C(C)C)c1O [4-(2-thienylcarbonyl)-amino-2,6-diisopropylphenol] | – | inhibition at 10 µM (Leukotriene C4 formation): 79.9% |
| – | CCCCCCCCCCCC(=O)Nc1cc(CC)c(O)c(C(C)(C)C)c1 [4-(lauroylamino)-2-ethyl-6-tert-butylphenol] | – | antioxidant activity [2]: antioxidant activity |
| – | CCCCCCCCCCCCCCCCCC(=O)Nc1cc(C(C)(C)C)c(O)c(C(C)(C)C)c1 [4-(stearoylamino)-2,6-di-tert-butylphenol] | – | antioxidant activity [2]: antioxidant activity |
| – | Cc1cnc(Nc2ccc(O)c(C(C)(C)C)c2C(C)(C)C)s1 [4-[2-(5-methyl)thiazolylamino]-2,3-di-tert-butylphenol] | – | lipoxygenase inhibitory activity (lipoxygenase): lipoxygenase inhibitory activity |
| – | CCCCCCCC(=O)Nc1cc(CC)c(O)c(CC)c1 [both C2 H5, (CH2)6 CH3] | 85.6 | – |
| 300 | CCCCCCC(=O)Nc1cc(C)c(O)c(C)c1 [both CH3, (CH2)5 CH3] | 53.1 | – |
| 330 | CCCCCCCC(=O)Nc1cc(C)c(O)c(C)c1 [both CH3, (CH2)6 CH3] | 59.7 | – |
| 400 | CCCCCCCCC(=O)Nc1cc(C)c(O)c(C)c1 [both CH3, (CH2)7 CH3, 4-nonanoylamino-2,6-dimethylphenol] | 57.3 | – |

| IC50 (5-lipoxygenase) [nM] | Structure (SMILES) | inhibition at 1 µM (Leukotriene B4 formation) [%] | also measured |
| --- | --- | --- | --- |
| – | CCCCCCCC(=O)Nc1cc(C(C)C)c(O)c(C(C)C)c1 [both CH(CH3)2, (CH2)6 CH3] | 69.5 | – |
| 810 | Cc1cc(NC(=O)c2ccsc2)cc(C)c1O [drawing 7] | – | – |
| 270 | Cc1ccc(C(=O)Nc2cc(C)c(O)c(C)c2)s1 [drawing 8] | – | – |
| 200 | Cc1cc(NC(=O)/C=C/c2cccs2)cc(C)c1O [drawing 11] | – | – |
| 760 | Cc1cc(NC(=O)CCc2cccs2)cc(C)c1O [drawing 13] | – | – |
| 240 | COc1cccc(/C=C/C(=O)Nc2cc(C)c(O)c(C)c2)c1 [drawing 16] | – | – |
| 220 | COc1ccc(/C=C/C(=O)Nc2cc(C)c(O)c(C)c2)cc1 [drawing 17] | – | – |
| 150 | COc1ccc(/C=C(\C)C(=O)Nc2cc(C)c(O)c(C)c2)cc1 [drawing 19] | – | – |
| 200 | CC(=O)Oc1ccc(CCC(=O)Nc2cc(C)c(O)c(C)c2)cc1OC(C)=O [drawing 20] | – | – |
| 250 | COc1ccc(CCC(=O)Nc2cc(C)c(O)c(C)c2)cc1 [drawing 21] | – | – |
| 150 | COc1ccc(/C=C(\C)C(=O)Nc2cc(C(C)C)c(O)c(C(C)C)c2)cc1 [drawing 22] | – | – |
| – | Cc1cc(NC(=O)c2ccsc2)cc(C)c1O [drawing 25] | – | inhibition at 10 µM (Leukotriene C4 formation): 62.9% |
| – | Cc1ccc(C(=O)Nc2cc(C)c(O)c(C)c2)s1 [drawing 27] | – | inhibition at 10 µM (Leukotriene C4 formation): 59% |
| – | Cc1cc(NC(=O)CCc2cccs2)cc(C)c1O [drawing 28] | – | inhibition at 10 µM (Leukotriene C4 formation): 45.8% |
| – | Cc1cc(NC(=O)/C=C/c2cccs2)cc(C)c1O [drawing 30] | – | inhibition at 10 µM (Leukotriene C4 formation): 65% |
| – | COc1ccc(CCC(=O)Nc2cc(C)c(O)c(C)c2)cc1 [drawing 33] | – | inhibition at 10 µM (Leukotriene C4 formation): 49.3% |
| – | COc1cccc(/C=C/C(=O)Nc2cc(C)c(O)c(C)c2)c1 [drawing 35] | – | inhibition at 10 µM (Leukotriene C4 formation): 46% |
| – | COc1ccc(/C=C(\C)C(=O)Nc2cc(C)c(O)c(C)c2)cc1 [drawing 37] | – | inhibition at 10 µM (Leukotriene C4 formation): 58.1% |
| – | COc1cccc(/C=C/C(=O)Nc2cc(C)c(O)c(C)c2)c1 [drawing 42] | 62.6 | – |
| – | COc1ccc(/C=C/C(=O)Nc2cc(C)c(O)c(C)c2)cc1 [drawing 43] | 65.6 | – |
| – | CC(=O)Oc1ccc(CCC(=O)Nc2cc(C)c(O)c(C)c2)cc1OC(C)=O [drawing 45] | 81.9 | – |
| – | COc1ccc(/C=C(\C)C(=O)Nc2cc(C(C)C)c(O)c(C(C)C)c2)cc1 [drawing 47] | 88.8 | – |
